Reference: patent US7572612B2, “Method of production of para-hydroxycinnamic acid using a thermostable TAL enzyme” (E.I. du Pont de Nemours and Company, priority 2006, dated 2009)

Key:
[1] = system: Phanerochaete chrysosporium tyrosine ammonia lyase PcTAL (PAL/TAL enzyme), wild type, SEQ ID NO:1; assay: Kinetic parameters of the PcTAL enzyme for tyrosine and phenylalanine; type: biochemical; conditions: 45° C., 100 mM CAPS, pH 9.5 buffer
Experimental: The PAL and TAL activities of the purified enzymes were measured using a spectrophotometer according to Abell et al., [Phenylalanine Ammonia-lyase from Yeast Rhodotorula glutinis,” Methods Enzymol. 142:242-248 (1987)]. The assay for PAL determination was initiated by addition of the enzyme to a 50 mM Tris-HCl (pH 8.5) buffer solution containing 1.0 mM L-phenylalanine. The reaction was followed by monitoring the CA production at λ290 nm and the activity was calculated using a molar extinction coefficient of […]. The assay was run over a 5 min period using an amount of enzyme that produced absorbance changes in the range of 0.0075 to 0.018/min. One unit of activity indicated deamination of 1.0 micro-mol of phenylalanine to CA per minute. The TAL activity was similarly measured using tyrosine, instead of phenylalanine, in the reaction solution. The absorbance of the pHCA produced was followed at λ315 nm and the activity was determined using an extinction coefficient of 10,000 cm^−1 for pHCA. One unit of activity indicated deamination of 1.0 micro-mol of tyrosine to pHCA per minute. Some TAL assays were performed at pH 9.5 or 10.0 in 100 mM CAPS buffer. The TAL activity was measured as described above, except that the extinction coefficient was 16,800 cm^−1 for pHCA.
The TAL assay was typically performed in a 1.5 ml capacity UV grade disposable cuvette (VWR) at 35° C. using a Perkin-Elmer Lamba20 spectrophotometer (Wellesley, Mass.). The reaction (1.0 ml volume) contained the soluble protein sample, 100 mM CAPS pH10 buffer and 10 mM tyrosine and was monitored for 3 minutes at I315 nm. The TAL activity (U/g) was calculated as follows: Total TAL activity (mM/min)=D315 nm/min×[…] divided by pHCA extinction coefficient (M^−1 cm^−1)=D315 nm/min×[…] divided by 16,800 (M^−1 cm^−1). TAL specific activity (U/g)=total TAL activity (mM/min) divided by the amount of protein used in the assay. Gel Electrophoresis
Six grams of cell pellet, from the 10 liter fermentation of DPD5154 was resuspended in 6.0 mL Buffer A (10 mM Tris-HCl, pH 8.0, 200 μM EDTA) containing one EDTA-free protease inhibitor tablet (Roche Biosciences, Palo Alto, Calif.), 1.0 μg/ml Leupeptin, 1.0 μg/ml Pepstatin, 40 μg/ml Bestatin 5.0 mM CA. Cells were lysed by two passes through a French Pressure Cell at 20,000 PSI, and clarified by centrifugation at 12,000×g for 20 minutes. To the clarified supernatant, 1.0% streptomycin sulfate was added, and the suspension was gently mixed for 15 minutes at 4° C. and then clarified by centrifugation at 12,000×g for 20 minutes. The supernatant was heated at 60° C. for 20 min, and centrifuged again at 12,000×g for 20 minutes. […]

[2] = system: Phanerochaete chrysosporium tyrosine ammonia lyase PcTAL (PAL/TAL enzyme), wild type, SEQ ID NO:1; assay: PcTAL substrate test with histidine; type: biochemical; conditions: 20 mM histidine, 100 mM diethanol amime at pH 9, 1.3 mM 2-mercaptoethanol, 0.1 mM MnCl2
Experimental: The increase of TAL and PAL activities with increasing substrate concentrations followed the typical Michaelis-Menton equation. The kcat of the enzyme was 1.3 S^−1 for tyrosine, and 3.3 S^−1 for phenylalanine. The KM was 44 μM for tyrosine and 161 μM for phenylalanine. The kcat/KM value was slightly higher for tyrosine (3.0 M^−1 S^−1) than for phenylalanine (2.1 M^−1 S^−1), indicating the enzyme's slight preference for tyrosine (PAL/TAL ratio of 0.7). […] The substrate specificity of the PcTAL enzyme is therefore similar to other known fungal PAL/TAL enzymes, such as that from R. glutinis, with dual specificity for tyrosine and phenylalanine.

Row | SMILES | Km [1] | kcat [1] | acceptance as a substrate [2]
1 | N[C@@H](Cc1ccccc1)C(=O)O [phenylalanine] | 161 µM | 3.3 S^−1 | –
2 | N[C@@H](Cc1c[nH]cn1)C(=O)O [histidine] | – | – | did not accept histidine as a substrate
3 | N[C@@H](Cc1ccc(O)cc1)C(=O)O [tyrosine] | 44 µM | 1.3 S^−1 | –
